Data from patent US20250304547A1, “Sulfur-Containing Lipids” (NanoVation Therapeutics Inc., priority 2022, published 2025).

Tests used:
FVII gene = conditions: mice, siRNA formulations of the amino lipid; cited from earlier work
[1] = Encapsulation efficiency, Quant-iT RiboGreen assay; type: physicochemical; conditions: firefly luciferase mRNA LNP, ionizable lipid/DSPC/chol/PEG-DMG 50/10/38.5/1.5 mol %, N/P 6
Procedure: (§1) Lipids used in the formulation, nor-MC3, 4, DSPC, cholesterol, and PEG-DMG, were dissolved in ethanol at the appropriate ratios to a final concentration of 10 mM total lipid. Nucleic acid (mRNA) was dissolved in an appropriate buffer such as 25 mM sodium acetate pH 4 or sodium citrate pH 4 to a concentration necessary to achieve the appropriate amine-to-phosphate ratios. The aqueous and organic solutions were mixed using a rapid-mixing device as described in Kulkami et al., 2018, ACS Nano, 12:4787 and Kulkami et al., 2017, Nanoscale, 36:133347 (each incorporated herein by reference) at a flow rate ratio of 3:1 (v/v; respectively) and a total flow rate of 20 mL/min. The resultant mixture was dialyzed directly against 1000-fold volume of PBS pH 7.4. All formulations were concentrated using an Amicon™ centrifugal filter unit and analysed using the methods described below.
Particle size analysis of LNPs in PBS was carried out using backscatter measurements of dynamic light scattering with a Malvern Zetasizer™ (Worcestershire, UK). […] Total lipid concentrations were determined by extrapolation from the cholesterol content, which was measured using the Cholesterol E-Total Cholesterol Assay (Wako Diagnostics, Richmond, VA) as per the manufacturer's recommendations. Encapsulation efficiency of the formulations was determined using the Quant-iT RiboGreen™ Assay kit (Invitrogen, Waltham, MA). […]

liver = assay: In vivo transfection of firefly luciferase mRNA-LNP, luciferase assay of liver; conditions: CD-1 mice, intravenous, 4 hours post-administration, mRNA LNP 50/10/38.5/1.5 mol %, N/P 6
Procedure: as §1
(§2) LNP-mRNA encoding firefly luciferase were injected intravenously (tail-vein) into 6-8 week old CD-1 mice. Four hours following injection, the animals were euthanized and the liver and spleen were isolated. Tissue was homogenized in Glo Lysis™ buffer and a luciferase assay performed using the Steady Glo Luciferase™ assay kit (as per manufacturers recommendations).

spleen = assay: In vivo transfection of firefly luciferase mRNA-LNP, luciferase assay of spleen; conditions: CD-1 mice, intravenous, 4 hours post-administration, mRNA LNP 50/10/38.5/1.5 mol %, N/P 6
Procedure: as §1, §2

[2] = Particle size analysis of LNPs by dynamic light scattering; type: physicochemical; conditions: firefly luciferase mRNA LNP, ionizable lipid/DSPC/chol/PEG-DMG 50/10/38.5/1.5 mol %; for polydispersity index (PDI): N/P 6; for particle size (number-weighted average diameter): N/P 6, in PBS
Procedure: as §1
Particle size analysis of LNPs in PBS was carried out using backscatter measurements of dynamic light scattering with a Malvern Zetasizer™ (Worcestershire, UK). The reported particle sizes correspond to the number-weighted average diameters (nm). Total lipid concentrations were determined by extrapolation from the cholesterol content, which was measured using the Cholesterol E-Total Cholesterol Assay (Wako Diagnostics, Richmond, VA) as per the manufacturer's recommendations. Encapsulation efficiency of the formulations was determined using the Quant-iT RiboGreen™ Assay kit (Invitrogen, Waltham, MA). Briefly, the total mRNA content in solution was measured by lysing lipid nanoparticles in a solution of Tris-EDTA (TE) containing 2% Triton Tx-100, and free […] in solution (external to LNP) was measured based on the RiboGreen™ fluorescence in a TE solution without Triton. Total mRNA content in the formulation was determined using a modified Bligh-Dyer extraction procedure. Briefly, LNP formulations containing mRNA were dissolved in a mixture of chloroform, methanol, and PBS that results in a single phase and the absorbance at 260 nm measured using a spectrophotometer.

entrapment / encapsulation efficiency [1] [%]	polydispersity index (PDI) [2]	particle size (number-weighted average diameter) [2]	Compound	ED50 for FVII gene silencing (FVII gene) [mg/kg]	luminescence intensity/mg of liver, relative to the nor-MC3 formulation (liver)	luminescence intensity/mg of spleen, relative to the nor-MC3 formulation (spleen)
–	–	–	CCCCC/C=C\C/C=C\CCCCCCCCC1(CCCCCCCC/C=C\C/C=C\CCCCC)OCC(CCN(C)C)O1 (stereo not drawn) [KC2]	0.1	–	–
~90	about 0.090	about 50.0 nm	CCCCCSCSCCCCCCCCC1(CCCCCCCCSCSCCCCC)OCC(CCN(C)C)O1 (stereo not drawn) [Lipid 4, 2-(2,2-bis(8-(((pentylthio)methyl)thio)octyl)-1,3-dioxolan-4-yl)-N,N-dimethyl-ethan-1-amine]	–	trend was reversed in the liver	higher luminescence intensity in the spleen
94	about 0.075	about 39.9 nm	nor-MC3 [reference compound]	–	–	–
